Measurements from US20130289471A1, “GAS BASED WOUND AND TISSUE THERAPEUTICS” (Virginia Commonwealth University, priority 2008, published 2013).

Tests used:
[1] = Lipophilicity of the preferred PFC (statement); assay type: physicochemical
Excerpt: Being that the PFCs are slightly lipophilic at body temperature and would help in the transport of oxygen into and removal of carbon dioxide from the skin tissue, PFCs can accelerate the healing process of a wound in a tissue.

[2] = Physical properties of F-tert-butylcyclohexane; assay type: physicochemical; parameters: Kinematic Viscosity: unit not given here
Excerpt: Oxycyte® is based on the perfluorocarbon F-tert-butylcyclohexane, a saturated alicyctic PFC (molecular formula C10F20) and can be used as a PFC composition in the methods and uses described herein. Physical properties of F-tert-butylcyclohexane are as follows: […]

lipophilicity ([1]; at body temperature): only slightly lipophilic
lipophilicity ([1]; at room temperature): not lipophilic
Density [2]: 1.97 g/mL
Kinematic Viscosity [2]: 5.378
Vapor Pressure @ 25° C. ([2]; 25° C.): 3.8 mmHg
Vapor Pressure @ 37° C. ([2]; 37° C.): 4.4 mmHg
Structure (SMILES): FC(F)(F)C(C(F)(F)F)(C(F)(F)F)C1(F)C(F)(F)C(F)(F)C(F)(F)C(F)(F)C1(F)F [F-tert-butylcyclohexane, perfluoro-tert-butylcyclohexane]
